According to paper PMC9037111, “Structure-based design, synthesis, and biological evaluation of novel piperine–resveratrol hybrids as antiproliferative agents targeting SIRT-2” (RSC Advances, 2021):
Like-named read-outs stand apart in the source and are kept apart here.

Experiments:
[1] = molecular target: T1, SIRT2 (Homo sapiens, UniProt Q8IXJ6); experiment: biochemical; parameters: Sirtuin-TK assay, percent inhibition of human SIRT1 or SIRT2 at 5 and 50 uM
T1 sequence (Q8IXJ6 2-389): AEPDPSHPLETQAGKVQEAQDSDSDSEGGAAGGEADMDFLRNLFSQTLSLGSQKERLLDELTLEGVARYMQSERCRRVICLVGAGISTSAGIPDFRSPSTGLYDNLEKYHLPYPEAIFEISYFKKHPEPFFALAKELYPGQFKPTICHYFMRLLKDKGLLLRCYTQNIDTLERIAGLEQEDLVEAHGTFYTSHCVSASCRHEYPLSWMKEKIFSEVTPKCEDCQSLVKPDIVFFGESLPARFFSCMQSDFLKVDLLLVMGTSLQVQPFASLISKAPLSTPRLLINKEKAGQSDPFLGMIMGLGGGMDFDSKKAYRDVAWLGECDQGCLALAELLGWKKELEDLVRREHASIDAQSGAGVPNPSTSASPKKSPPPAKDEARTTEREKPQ
Description: (§1) Sirtuin-TK assay was performed to estimate the Sirtuins inhibitory potential of 5a–h (Tables 2 and 3). The results of this test strongly complemented the findings of cancer cell-based assessments. […] Of the 8 compounds evaluated, 3 analogs (5b, 5e and 5h) were more likely to inhibit Sirt2 (>70% inhibition) than Sirt1 (<50% inhibition) at 50 μM. The other compounds were poor inhibitors of both enzymes. […] 4.2.2. Sirtuin inhibitory assay

[2] = molecular target: T2, SIRT1 (Homo sapiens, UniProt Q96EB6); experiment: biochemical; parameters: Sirtuin-TK assay, percent inhibition of human SIRT1 or SIRT2 at 5 and 50 uM
T2 sequence (Q96EB6 2-747): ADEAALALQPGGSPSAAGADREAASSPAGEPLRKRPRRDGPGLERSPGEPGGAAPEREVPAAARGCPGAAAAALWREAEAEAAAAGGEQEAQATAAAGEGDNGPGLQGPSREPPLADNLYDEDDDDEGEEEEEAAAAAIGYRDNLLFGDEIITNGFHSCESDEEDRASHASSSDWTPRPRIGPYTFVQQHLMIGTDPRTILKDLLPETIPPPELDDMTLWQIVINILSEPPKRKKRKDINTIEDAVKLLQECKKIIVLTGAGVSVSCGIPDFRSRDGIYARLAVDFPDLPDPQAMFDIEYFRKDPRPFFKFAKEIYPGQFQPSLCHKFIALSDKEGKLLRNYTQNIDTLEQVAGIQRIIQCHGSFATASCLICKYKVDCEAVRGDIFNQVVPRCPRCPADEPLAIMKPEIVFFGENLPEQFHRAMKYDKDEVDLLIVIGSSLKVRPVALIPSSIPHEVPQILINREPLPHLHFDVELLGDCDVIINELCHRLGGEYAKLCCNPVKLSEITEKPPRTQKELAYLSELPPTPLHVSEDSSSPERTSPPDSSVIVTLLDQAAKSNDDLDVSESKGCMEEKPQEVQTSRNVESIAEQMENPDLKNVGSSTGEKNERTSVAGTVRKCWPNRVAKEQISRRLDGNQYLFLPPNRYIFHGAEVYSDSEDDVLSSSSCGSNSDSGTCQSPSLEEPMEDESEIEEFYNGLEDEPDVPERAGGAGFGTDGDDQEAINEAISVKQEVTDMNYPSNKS
Description: as §1

[3] = molecular target: T1, SIRT2; experiment: sirtuin deacetylase inhibition assay, IC50; format: biochemical
[4] = tested on: SF-295; experiment: cells; parameters: species or system NCI-60 human tumour cell lines; NCI-60 one-dose screen at 10 uM, percent growth inhibition versus untreated control cells; conditions: Homo sapiens, SF-295, growth inhibition, one dose
[5] = tested on: SK-OV-3; experiment: cells; parameters: species or system NCI-60 human tumour cell lines; NCI-60 one-dose screen at 10 uM, percent growth inhibition versus untreated control cells; conditions: Homo sapiens, SK-OV-3, growth inhibition, one dose
[6] = tested on: COLO 205; experiment: cells; parameters: species or system NCI-60 human tumour cell lines; NCI-60 one-dose screen at 10 uM, percent growth inhibition versus untreated control cells; conditions: Homo sapiens, COLO 205, growth inhibition, one dose
[7] = tested on: TK-10; experiment: cells; parameters: species or system NCI-60 human tumour cell lines; NCI-60 one-dose screen at 10 uM, percent growth inhibition versus untreated control cells; conditions: Homo sapiens, TK-10, growth inhibition, one dose
[8] = tested on: RXF 393; experiment: cells; parameters: species or system NCI-60 human tumour cell lines; NCI-60 one-dose screen at 10 uM, percent growth inhibition versus untreated control cells; conditions: Homo sapiens, RXF 393, growth inhibition, one dose
[9] = tested on: NCI-H23; experiment: cells; parameters: species or system NCI-60 human tumour cell lines; NCI-60 one-dose screen at 10 uM, percent growth inhibition versus untreated control cells; conditions: Homo sapiens, NCI-H23, growth inhibition, one dose
[10] = tested on: MDA-MB-468; experiment: cells; parameters: species or system NCI-60 human tumour cell lines; NCI-60 one-dose screen at 10 uM, percent growth inhibition versus untreated control cells; conditions: Homo sapiens, MDA-MB-468, growth inhibition, one dose
[11] = read-out: Growth% inhibition / 5b
[12] = read-out: Growth% inhibition / 5e

Row | Compound | inhibition at 5 µM [1] | inhibition at 5 µM [2] | inhibition at 50 µM [2] | inhibition at 50 µM [1] | IC50 [3] | further results
1 | CN(C)c1ccc(C=NNC(=O)/C=C/C=C/c2ccc3c(c2)OCO3)cc1 (mixture of isomers) [5d, (2E,4E)-5-(Benzo[d][1,3]dioxol-5-yl)-N′-((E/Z)-4-(dimethylamino)-benzylidene)penta-2,4-dienehydrazide] | 18 ± 2% | 11 ± 2% | – | – | – | –
2 | O=C(/C=C/C=C/c1ccc2c(c1)OCO2)NN=Cc1ccc(O)cc1 [5a, (2E,4E)-5-(Benzo[d][1,3]dioxol-5-yl)-N′-((E,Z)-4-hydroxybenzylidene)penta-2,4-dienehydrazide] | 19 ± 3% | 13 ± 3% | 42 ± 3% | – | – | –
3 | O=C(/C=C/C=C/c1ccc2c(c1)OCO2)N/N=C/c1ccc(O)cc1O [5b, (2E,4E)-5-(Benzo[d][1,3]dioxol-5-yl)-N′-((E)-2,4-dihydroxybenzylidene)penta-2,4-dienehydrazide] | 26 ± 3% | 18 ± 3% | – | 78 ± 3% | 21 ± 3 µM | inhibition at 10 µM [4, 11]: 86.2%; inhibition at 10 µM [5, 11]: 73%; inhibition at 10 µM [6, 11]: 86%; inhibition at 10 µM [7, 11]: 69%; inhibition at 10 µM [8, 11]: 42.1%; inhibition at 10 µM [9, 11]: 70%
4 | CCN(CC)c1ccc(/C=N/NC(=O)/C=C/C=C/c2ccc3c(c2)OCO3)c(O)c1 [5e, (2E,4E)-5-(Benzo[d][1,3]dioxol-5-yl)-N′-((E)-4-(diethylamino)-2-hydroxybenzylidene)penta-2,4-dienehydrazide] | 24 ± 3% | 20 ± 5% | 44 ± 2% | 74 ± 2% | 23 ± 2 µM | inhibition at 10 µM [4, 12]: 58.3%; inhibition at 10 µM [10, 12]: 86.6%; inhibition at 10 µM [5, 12]: 60.5%; inhibition at 10 µM [6, 12]: 60.1%; inhibition at 10 µM [7, 12]: 62.2%; inhibition at 10 µM [8, 12]: 27.4%; inhibition at 10 µM [9, 12]: 50.3%
5 | C/C(=N\NC(=O)/C=C/C=C/c1ccc2c(c1)OCO2)c1ccc(Br)cc1 [5h, (2E,4E)-5-(Benzo[d][1,3]dioxol-5-yl)-N′-((E)-1-(4-bromophenyl)ethylidene)penta-2,4-dienehydrazide] | 22 ± 5% | 16 ± 5% | 44 ± 3% | 75 ± 3% | 26 ± 3 µM | inhibition at 10 µM ([10]; read-out: Growth% inhibition / 5h): 29.3%
